Legend:
HDAC Class II = HDAC Class II inhibition; format: biochemical; conditions: no activity against HDAC Class II
[1] = system: peptide-specific CD8 T cells; test: Immunogenicity experiment with CXD101 and peptide vaccine; format: in vivo, C57BL/6 mice
Protocol: C57BL/6 mice were treated with orally administrated CXD101 at 10 mg/kg for 14 days (5 days on/2 days off) and intravenous D8V and 18V peptides vaccination (days 1 and 7) with respect to vehicle only control; n=5 per group; • B) 18V-peptide specific CD8 positive T cells with tetramers (i) and general T cell activation (CD8+ CD44+ CD62L− tetramer positive T cells) measurements by flow cytometry; n=5; • C) Representative examples of immunohistochemical staining of H3AcK9 in lungs (i) collected from C57BL/6 mice at 14 days treated with 25 mg/kg CXD101 and non-treated control. Original magnification: 20×, scale bar, 50 μm; and 63×; scale bar, 16 μm. n=3; (ii) results were quantified by ImageJ Fiji software and normalised optical density was presented as a mean+/−SD. […]
Twenty C57BL/6 female mice (5 mice per group: control; CXD101 treated; peptide vaccinated; CXD101/peptide vaccinated) where 10 mice were vaccinated intravenously with 30 μg of peptides encoding CD8 T cell epitopes from the beta-galactosidase gene, βgale96-103 (DAPIYTNV; D8V), the βgal497-504 (ICPMYARV; 18V) (Genscript) with 30 μg polylC (InVivogen) and 25 μg anti-CD40 (2bScientific). […] Mice were bled at day 6 and 13 post prime and the levels of peptide-specific CD8 T cells measured by detection with tetramers followed by flow cytometry.

physchem = conditions: 25 °C, aqueous buffer

Cc1nn(C)cc1CN1CCC(c2ccc(C(=O)Nc3ccccc3N)cc2)CC1 [CXD101/zabinostat, N-(2-aminophenyl)-4-(1-[(1,3-dimethyl-1H-pyrazol-4-yl)methyl]piperidin-4yl)benzamide]
IC50 (HDAC Class II): ≥ 2500 nM | immunogenicity against a peptide-based vaccine ([1]; C57BL/6 mice, oral CXD101, intravenous D8V and 18V peptides vaccination, tetramers and flow cytometry (FIG. 7)): induces immunogenicity against a peptide-based vaccine | immune response to an immunogenic protein ([1]; normal healthy cells and animals): potentiates the immune response | solubility (physchem): ≥ 500 µg/mL

From patent US20240180890A1, “VACCINE ADJUVANT” (Celleron Therapeutics Limited, priority 2021, published 2024)
